Measured values taken from publication PMC13205134, “Design, synthesis, and biological properties exhibited by 1,2,3-triazole based Grp94-selective inhibitors” (European journal of medicinal chemistry, 2025).

What was measured:
Grp94 = assay: Competitive binding fluorescence polarization (FP) assay, Grp94; settings: selectivity over Hsp90α; n.s. = non-selective
Protocol: The Fluorescence Polarization Assay (FP) was performed in 96-well flat-bottom plates (Santa Cruz Biotechnology) with a final volume of 100 μL per well. […] Each well contained 10 nM of Hsp90α or Grp94 (Enzo Biochem Inc.) and 6 nM of FITC-GDA (fluorescent tracer, stock in DMSO). Compounds were tested in triplicate at final concentrations of 100 μM, 10 μM, 1 μM, 0.1 μM and 0.01 μM with each final concentration containing 1 % DMSO. Each plate included control wells containing: (i) buffer only (background polarization), (ii) protein plus tracer (maximum polarization control), and (iii) tracer only (minimum polarization control). Plates were incubated on a rocker at 4 °C for 24 h.

Hsp90α = Hsp90α (Homo sapiens, UniProt P07900); assay: Competitive binding fluorescence polarization (FP) assay, Hsp90α; settings: FITC-GDA tracer, mean of triplicates ± SD, read-out: Apparent Kd Hsp90α
Protocol: The Fluorescence Polarization Assay (FP) was performed in 96-well flat-bottom plates (Santa Cruz Biotechnology) with a final volume of 100 μL per well. The assay buffer consisted of 20 mM HEPES, 50 mM KCl, 10.5 mM MgCl2, 20 mM Na2MoO4, 0.01 % NP-40 detergent (NP-40), and pH 7.3 with fresh 2 mM dithiothreitol (DTT) and 0.1 mg/mL bovine γ-globulin (BGG). Each well contained 10 nM of Hsp90α or Grp94 (Enzo Biochem Inc.) and 6 nM of FITC-GDA (fluorescent tracer, stock in DMSO). Compounds were tested in triplicate at final concentrations of 100 μM, 10 μM, 1 μM, 0.1 μM and 0.01 μM with each final concentration containing 1 % DMSO. Each plate included control wells containing: (i) buffer only (background polarization), (ii) protein plus tracer (maximum polarization control), and (iii) tracer only (minimum polarization control). Plates were incubated on a rocker at 4 °C for 24 h. Fluorescence polarization (mP units) was measured at 37 °C using excitation and emission wavelengths of 485 and 528 nm, respectively. Apparent Kd values were determined via calculations from the polarization data obtained at which the tracer was displaced by 50 % by the compounds of interest.
[I50] = concentration of free inhibitor at 50% inhibition, [L50] = concentration of free fluorescence labeled ligand molecule at 50% inhibition, [P0] = concentration of free protein at 0% inhibition, K = dissociation constant of the protein−ligand complex.^4

Compound	Fold selective for Grp94 (Grp94)	Kd (Hsp90α) [µM]
COC(=O)c1c(O)cc(O)c(Cl)c1CCn1nncc1Cc1ccccc1Cl [Compound 39, methyl 3-chloro-2-(2-(5-(2-chlorobenzyl)-1H-1,2,3-triazol-1-yl)ethyl)-4,6-dihydroxybenzoate]	2 fold	8.32 ± 2.55
COC(=O)c1c(O)cc(O)c(Cl)c1CCn1nncc1Cc1ccc(F)cc1 [Compound 31, methyl 3-chloro-2-(2-(5-(4-fluorobenzyl)-1H-1,2,3-triazol-1-yl)ethyl)-4,6-dihydroxybenzoate]	2 fold	4.72 ± 0.44
CCSc1ccccc1Cc1cnnn1CCc1c(Cl)c(O)cc(O)c1C(=O)OC [Compound 43, methyl 3-chloro-2-(2-(5-(2-(ethylthio)benzyl)-1H-1,2,3-triazol-1-yl)ethyl)-4,6-dihydroxybenzoate]	43 fold	8.53 ± 1.05
COC(=O)c1c(O)cc(O)c(Cl)c1CCn1nncc1Cc1ccc(OC)cc1 [Compound 36, methyl 3-chloro-4,6-dihydroxy-2-(2-(5-(4-methoxybenzyl)-1H-1,2,3-triazol-1-yl)ethyl)benzoate]	7 fold	41.5 ± 7.6
COC(=O)c1c(O)cc(O)c(Cl)c1CCn1nncc1Cc1ccc(Cl)cc1 [Compound 32, methyl 3-chloro-2-(2-(5-(4-chlorobenzyl)-1H-1,2,3-triazol-1-yl)ethyl)-4,6-dihydroxybenzoate]	9 fold	5.7 ± 0.5
COC(=O)c1c(O)cc(O)c(Cl)c1CCn1nncc1Cc1ccccc1CC(C)C [Compound 49, methyl 3-chloro-4,6-dihydroxy-2-(2-(5-(2-isobutylbenzyl)-1H-1,2,3-triazol-1-yl)ethyl)benzoate]	6 fold	0.92 ± 0.05
COC(=O)c1c(O)cc(O)c(Cl)c1CCn1nncc1Cc1ccc(Br)cc1 [Compound 33, methyl 2-(2-(5-(4-bromobenzyl)-1H-1,2,3-triazol-1-yl)ethyl)-3-chloro-4,6-dihydroxybenzoate]	5 fold	3.38 ± 0.33
COC(=O)c1c(O)cc(O)c(Cl)c1CCn1nncc1Cc1ccccc1 [Compound 14, methyl 2-(2-(5-benzyl-1H-1,2,3-triazol-1-yl)ethyl)-3-chloro-4,6-dihydroxybenzoate]	8 fold	5.24 ± 0.24
COC(=O)c1c(O)cc(O)c(Cl)c1CCn1nncc1Cc1cccc(Cl)c1 [Compound 38, methyl 3-chloro-2-(2-(5-(3-chlorobenzyl)-1H-1,2,3-triazol-1-yl)ethyl)-4,6-dihydroxybenzoate]	3 fold	6.33 ± 1.33
COC(=O)c1c(O)cc(O)c(Cl)c1CCn1nnnc1Cc1ccccc1 [Compound 20, methyl 2-(2-(5-benzyl-1H-tetrazol-1-yl)ethyl)-3-chloro-4,6-dihydroxybenzoate]	3 fold	1.63 ± 0.88
CCCOc1ccccc1Cc1cnnn1CCc1c(Cl)c(O)cc(O)c1C(=O)OC [Compound 42, methyl 3-chloro-4,6-dihydroxy-2-(2-(5-(2-propoxybenzyl)-1H-1,2,3-triazol-1-yl)ethyl)benzoate]	30 fold	2.58 ± 0.36
COC(=O)c1c(O)cc(O)c(Cl)c1CCn1nncc1Cc1ccc(C)cc1 [Compound 34, methyl 3-chloro-4,6-dihydroxy-2-(2-(5-(4-methylbenzyl)-1H-1,2,3-triazol-1-yl)ethyl)benzoate]	9 fold	6.03 ± 0.37
CCOc1ccccc1Cc1cnnn1CCc1c(Cl)c(O)cc(O)c1C(=O)OC [Compound 40, methyl 3-chloro-2-(2-(5-(2-ethoxybenzyl)-1H-1,2,3-triazol-1-yl)ethyl)-4,6-dihydroxybenzoate]	30 fold	8.92 ± 0.16
COC(=O)c1c(O)cc(O)c(Cl)c1CCn1nncc1Cc1ccccc1SC(C)C [Compound 45, methyl 3-chloro-4,6-dihydroxy-2-(2-(5-(2-(isopropylthio)benzyl)-1H-1,2,3-triazol-1-yl)ethyl)benzoate]	5 fold	2.06 ± 0.87
COC(=O)c1c(O)cc(O)c(Cl)c1CCn1nncc1Cc1ccccc1CCC(F)(F)F [Compound 50, methyl 3-chloro-4,6-dihydroxy-2-(2-(5-(2-(3,3,3-trifluoropropyl)benzyl)-1H-1,2,3-triazol-1-yl)ethyl)benzoate]	70 fold	4.32 ± 0.39
COC(=O)c1c(O)cc(O)c(Cl)c1CCn1nncc1Cc1ccc(Cl)c(Cl)c1 [Compound 37, methyl 3-chloro-2-(2-(5-(3,4-dichlorobenzyl)-1H-1,2,3-triazol-1-yl)ethyl)-4,6-dihydroxybenzoate]	5 fold	6.42 ± 0.45
COC(=O)c1c(O)cc(O)c(Cl)c1CCn1cc(Cc2ccccc2)nn1 [Compound 16, methyl 2-(2-(4-benzyl-1H-1,2,3-triazol-1-yl)ethyl)-3-chloro-4,6-dihydroxybenzoate]	n.s.	6.79 ± 0.1
CCOc1cc(Cl)ccc1Cc1cnnn1CCc1c(Cl)c(O)cc(O)c1C(=O)OC [Compound 41, methyl 3-chloro-2-(2-(5-(4-chloro-2-ethoxybenzyl)-1H-1,2,3-triazol-1-yl)ethyl)-4,6-dihydroxybenzoate]	12 fold	8.9 ± 0.21
CCCCc1ccccc1Cc1cnnn1CCc1c(Cl)c(O)cc(O)c1C(=O)OC [Compound 48, methyl 2-(2-(5-(2-butylbenzyl)-1H-1,2,3-triazol-1-yl)ethyl)-3-chloro-4,6-dihydroxybenzoate]	78 fold	6.72 ± 0.15
CCc1ccccc1Cc1cnnn1CCc1c(Cl)c(O)cc(O)c1C(=O)OC [Compound 46, methyl 3-chloro-2-(2-(5-(2-ethylbenzyl)-1H-1,2,3-triazol-1-yl)ethyl)-4,6-dihydroxybenzoate]	12 fold	9.22 ± 0.48
COC(=O)c1c(O)cc(O)c(Cl)c1CCc1cnnn1Cc1ccccc1 [Compound 10, methyl 2-(2-(1-benzyl-1H-1,2,3-triazol-5-yl)ethyl)-3-chloro-4,6-dihydroxybenzoate]	n.s.	0.62 ± 0.04
CCCSc1ccccc1Cc1cnnn1CCc1c(Cl)c(O)cc(O)c1C(=O)OC [Compound 44, methyl 3-chloro-4,6-dihydroxy-2-(2-(5-(2-(propylthio)benzyl)-1H-1,2,3-triazol-1-yl)ethyl)benzoate]	78 fold	4.39 ± 0.17
CCc1ccc(Cc2cnnn2CCc2c(Cl)c(O)cc(O)c2C(=O)OC)cc1 [Compound 35, methyl 3-chloro-2-(2-(5-(4-ethylbenzyl)-1H-1,2,3-triazol-1-yl)ethyl)-4,6-dihydroxybenzoate]	n.s.	0.81 ± 0.06
